20 compounds from patent US11970498B2, “CDK2 inhibitors” (BLUEPRINT MEDICINES CORPORATION, priority 2021, dated 2024) can be followed below.

One assay has as its target CDK2/Cyclin E (Homo sapiens, UniProt P24941). The assay can be described thus: CDK2/Cyclin E biochemical phosphorylation assay (Caliper mobility shift). The note with it: apparent IC50; 1.0 mM ATP or ATP Km; 1.25 nM enzyme; 25° C.; read-out: CDK2/cyclin E1 IC50. The procedure:
(§1) Inhibitory effects of the compounds of the disclosure were measured in biochemical assays that measure the enzymatic phosphorylation activity of CDK enzyme in complex of Cyclin proteins phosphorylates 7.5 micromolar fluorescently labelled peptide substrate, 5-FAM-QSPKKG-CONH2, (FL-Peptide 18, Perkin Elmer, 760362) in the presence of adenosine-5′-triphosphate (ATP) and varying concentrations of the test compound in 100 mM 2-[4-(2-hydroxyethyl)piperazin-1-yl] ethanesulfonic acid (HEPES), pH 7.5, 10 mM MgCl2, 0.015% Brij-35, 1 mM dithiothreitol (DTT), 1.0% dimethylsulfoxide (DMSO). Assays were performed at 1.0 mM ATP or at ATP Km of the CDK enzymes in complex with Cyclin proteins. Reactions proceeded until between 10% to 20% total peptides were phosphorylated at room temperature (25° C.) and were terminated with 35 mM 2,2′,2″,2′″-(ethane-1,2-diyldinitrilo)tetraacetic acid (EDTA). Product was detected using the Caliper mobility shift detection method where the phosphorylated peptide (product) and substrate were electrophoretically separated and measured. Percent activity was plotted against log concentration of compound and points to generate an apparent IC50. The following CDK enzymes in complex with different cyclin proteins were used in these assays: • CDK1/Cyclin B1, GST-tag (BPS, 40454), 1.5 nM used in the assay • CDK2/Cyclin E (Eurofins, 14-475), 1.25 nM used in the assays
(§2) For inhibitory activity against CDK2/Cyclin E mutant, the following designations are used: ≤10 nM=A; >10-20 nM=B; >20-30 nM=C; >30-100 nM=D and >100=E. For inhibition CDK1/Cyclin B1, GST-tag: ≥500 nM=A; <100-500 nM=B; <100 nM=C.

Another assay concerns the target T1, CDK1/Cyclin B1, GST-tag (Homo sapiens, UniProt P06493).
T1 construct: GST
The assay can be described thus: CDK1/Cyclin B1 biochemical phosphorylation assay (Caliper mobility shift). The note with it: apparent IC50; 1.0 mM ATP or ATP Km; 1.5 nM enzyme; 25° C. How it is done: as §1, §2

T1 sequence (P06493 whole entry): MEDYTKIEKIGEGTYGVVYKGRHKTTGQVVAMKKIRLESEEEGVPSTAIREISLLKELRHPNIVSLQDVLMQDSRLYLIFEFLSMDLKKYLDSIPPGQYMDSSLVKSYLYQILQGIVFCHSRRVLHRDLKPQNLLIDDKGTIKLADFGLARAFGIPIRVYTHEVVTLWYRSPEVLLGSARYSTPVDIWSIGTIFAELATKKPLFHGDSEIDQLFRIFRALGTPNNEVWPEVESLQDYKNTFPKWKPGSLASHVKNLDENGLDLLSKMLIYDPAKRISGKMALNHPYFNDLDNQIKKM
T1 sequence (P14635 whole entry partner): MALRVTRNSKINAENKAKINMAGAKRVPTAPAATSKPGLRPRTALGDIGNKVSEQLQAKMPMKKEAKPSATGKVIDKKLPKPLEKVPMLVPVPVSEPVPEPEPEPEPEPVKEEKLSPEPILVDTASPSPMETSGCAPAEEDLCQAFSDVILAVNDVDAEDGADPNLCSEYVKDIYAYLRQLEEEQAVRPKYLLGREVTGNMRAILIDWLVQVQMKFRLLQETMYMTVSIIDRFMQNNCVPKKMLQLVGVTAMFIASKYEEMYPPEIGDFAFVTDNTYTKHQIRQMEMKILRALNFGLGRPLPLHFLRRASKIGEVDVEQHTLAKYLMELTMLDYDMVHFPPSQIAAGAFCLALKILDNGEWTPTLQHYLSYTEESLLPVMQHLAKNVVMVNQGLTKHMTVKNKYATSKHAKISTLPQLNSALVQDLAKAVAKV

Consider `COc1cc(Nc2cnc3c(F)nn([C@@H](C)C4CCOCC4)c3n2)n[nH]1` [Example 123, (S)-3-fluoro-N-(5-methoxy-1H-pyrazol-3-yl)-1-(1-(tetrahydro-2H-pyran-4-yl)ethyl)-1H-pyrazolo[3,4-b]pyrazin-6-amine], for which the IC50 on CDK2/Cyclin E was no more than 0.01 µM; on CDK1/Cyclin B1, GST-tag, no less than 0.5 µM.

As for `O[C@H]1CC[C@@H](Cn2ncc3ncc(Nc4cc(OC(F)F)[nH]n4)nc32)CC1` (single isomer, unassigned) [Example 171, (1s,4s)-4-((6-((5-(difluoromethoxy)-1H-pyrazol-3-yl)amino)-1H-pyrazolo[3,4-b]pyrazin-1-yl)methyl)cyclohexan-1-ol or (1r,4r)-4-((6-((5-(difluoromethoxy)-1H-pyrazol-3-yl)amino)-1H-pyrazolo[3,4-b]pyrazin-1-yl)methyl)cyclohexan-1-ol], the IC50 was 0.01 to 0.02 µM at CDK2/Cyclin E and no less than 0.5 µM on CDK1/Cyclin B1, GST-tag.

On to `FC(F)Oc1cc(Nc2cnc3cnn([C@H](C(F)F)C4CCOCC4)c3n2)n[nH]1` (single isomer, unassigned) [Example 28, (S)-1-(2,2-difluoro-1-(tetrahydro-2H-pyran-4-yl)ethyl)-N-(5-(difluoromethoxy)-1H-pyrazol-3-yl)-1H-pyrazolo[3,4-b]pyrazin-6-amine or (R)-1-(2,2-difluoro-1-(tetrahydro-2H-pyran-4-yl)ethyl)-N-(5-(difluoromethoxy)-1H-pyrazol-3-yl)-1H-pyrazolo[3,4-b]pyrazin-6-amine], for which the IC50 on CDK2/Cyclin E was 0.02 to 0.03 µM; at CDK1/Cyclin B1, GST-tag, no less than 0.5 µM.

Take `O[C@H]1C[C@H](n2ncc3ncc(Nc4cc(OC(F)F)[nH]n4)nc32)C1` (single isomer, unassigned) [Example 146, (1s,3s)-3-(6-((5-(difluoromethoxy)-1H-pyrazol-3-yl)amino)-1H-pyrazolo[3,4-b]pyrazin-1-yl)cyclobutan-1-ol or (1r,3r)-3-(6-((5-(difluoromethoxy)-1H-pyrazol-3-yl)amino)-1H-pyrazolo[3,4-b]pyrazin-1-yl)cyclobutan-1-ol]: the IC50 on CDK2/Cyclin E was 0.02 to 0.03 µM; on CDK1/Cyclin B1, GST-tag, no less than 0.5 µM.

For `O[C@@H]1C[C@H]1Cn1ncc2ncc(Nc3cc(OC(F)F)[nH]n3)nc21` (single isomer, unassigned) [Example 180, (1S,2R)-2-((6-((5-(difluoromethoxy)-1H-pyrazol-3-yl)amino)-1H-pyrazolo[3,4-b]pyrazin-1-yl)methyl)cyclopropan-1-ol or (1R,2S)-2-((6-((5-(difluoromethoxy)-1H-pyrazol-3-yl)amino)-1H-pyrazolo[3,4-b]pyrazin-1-yl)methyl)cyclopropan-1-ol], the IC50 is 0.02 to 0.03 µM at CDK2/Cyclin E and no less than 0.5 µM on CDK1/Cyclin B1, GST-tag.

Regarding `COc1cc(Nc2cnc3cnn(CC4CCOCC4)c3n2)n[nH]1` [Example 92, N-(5-methoxy-1H-pyrazol-3-yl)-1-((tetrahydro-2H-pyran-4-yl)methyl)-1H-pyrazolo[3,4-b]pyrazin-6-amine], the IC50 is no more than 0.01 µM at CDK2/Cyclin E and no less than 0.5 µM on CDK1/Cyclin B1, GST-tag.

For `CC(C)(C)n1ncc2ncc(Nc3cc(OC(F)F)[nH]n3)nc21` [Example 79, 1-(tert-butyl)-N-(5-(difluoromethoxy)-1H-pyrazol-3-yl)-1H-pyrazolo[3,4-b]pyrazin-6-amine], the IC50 on CDK2/Cyclin E was 0.02 to 0.03 µM; at CDK1/Cyclin B1, GST-tag, no less than 0.5 µM.

`FC(F)Oc1cc(Nc2cnc3cnn(CC45CC(F)(C4)C5)c3n2)n[nH]1` [Example 116, N-(5-(difluoromethoxy)-1H-pyrazol-3-yl)-1-((3-fluorobicyclo[1.1.1]pentan-1-yl)methyl)-1H-pyrazolo[3,4-b]pyrazin-6-amine]: the IC50 on CDK2/Cyclin E was no more than 0.01 µM; on CDK1/Cyclin B1, GST-tag, no less than 0.5 µM.

On to `FC(F)Oc1cc(Nc2cnc3cnn(CC4CC4)c3n2)n[nH]1` [Example 80, 1-(cyclopropylmethyl)-N-(5-(difluoromethoxy)-1H-pyrazol-3-yl)-1H-pyrazolo[3,4-b]pyrazin-6-amine], for which the IC50 on CDK2/Cyclin E is no more than 0.01 µM; at CDK1/Cyclin B1, GST-tag, no less than 0.5 µM.

Take `COc1cc(Nc2cnc3cnn(C(C)c4cccnn4)c3n2)n[nH]1` (single isomer, unassigned) [Example 33, (R)—N-(5-methoxy-1H-pyrazol-3-yl)-1-(1-(pyridazin-3-yl)ethyl)-1H-pyrazolo[3,4-b]pyrazin-6-amine or (S)—N-(5-methoxy-1H-pyrazol-3-yl)-1-(1-(pyridazin-3-yl)ethyl)-1H-pyrazolo[3,4-b]pyrazin-6-amine]: the IC50 at CDK2/Cyclin E was no more than 0.01 µM; at CDK1/Cyclin B1, GST-tag it was 0.1 to 0.5 µM.

Regarding `CCOc1cc(Nc2cnc3cnn(CC4CCOCC4)c3n2)n[nH]1` [Example 38, N-(5-ethoxy-1H-pyrazol-3-yl)-1-((tetrahydro-2H-pyran-4-yl)methyl)-1H-pyrazolo[3,4-b]pyrazin-6-amine], the IC50 was no more than 0.01 µM at CDK2/Cyclin E and 0.1 to 0.5 µM on CDK1/Cyclin B1, GST-tag.

On to `FC(F)Oc1cc(Nc2cnc3cnn(C[C@@H]4CC45CC5)c3n2)n[nH]1` (racemic) [Example 109, (R)-N-(5-(difluoromethoxy)-1H-pyrazol-3-yl)-1-(spiro[2.2]pentan-1-ylmethyl)-1H-pyrazolo[3,4-b]pyrazin-6-amine and (S)-N-(5-(difluoromethoxy)-1H-pyrazol-3-yl)-1-(spiro[2.2]pentan-1-ylmethyl)-1H-pyrazolo[3,4-b]pyrazin-6-amine], for which the IC50 was no more than 0.01 µM at CDK2/Cyclin E and 0.1 to 0.5 µM on CDK1/Cyclin B1, GST-tag.

Turning to `COc1cc(Nc2cnc3cnn([C@@H](C)c4cncs4)c3n2)n[nH]1` [Example 74, (S)-N-(5-methoxy-1H-pyrazol-3-yl)-1-(1-(thiazol-5-yl)ethyl)-1H-pyrazolo[3,4-b]pyrazin-6-amine], the IC50 at CDK2/Cyclin E was 0.02 to 0.03 µM; on CDK1/Cyclin B1, GST-tag, no less than 0.5 µM.

On to `O[C@H]1C[C@H](n2ncc3ncc(Nc4cc(OC(F)F)[nH]n4)nc32)C1` (single isomer, unassigned) [Example 145, (1r,3r)-3-(6-((5-(difluoromethoxy)-1H-pyrazol-3-yl)amino)-1H-pyrazolo[3,4-b]pyrazin-1-yl)cyclobutan-1-ol or (1s,3s)-3-(6-((5-(difluoromethoxy)-1H-pyrazol-3-yl)amino)-1H-pyrazolo[3,4-b]pyrazin-1-yl)cyclobutan-1-ol], for which the IC50 was greater than 0.1 µM at CDK2/Cyclin E and no less than 0.5 µM at CDK1/Cyclin B1, GST-tag.

With `FC(F)Oc1cc(Nc2cnc3cnn(C[C@H]4C[C@@H]5[C@H](C4)C5(F)F)c3n2)n[nH]1` [Example 126, 1-(((1R,3r,5S)-6,6-difluorobicyclo[3.1.0]hexan-3-yl)methyl)-N-(5-(difluoromethoxy)-1H-pyrazol-3-yl)-1H-pyrazolo[3,4-b]pyrazin-6-amine], the IC50 was no more than 0.01 µM on CDK2/Cyclin E and less than 0.1 µM at CDK1/Cyclin B1, GST-tag.

Regarding `C[C@@H](c1cccnc1)n1ncc2ncc(Nc3cc(OC(F)F)[nH]n3)nc21` [Example 1, (S)—N-(5-(difluoromethoxy)-1H-pyrazol-3-yl)-1-(1-(pyridin-3-yl)ethyl)-1H-pyrazolo[3,4-b]pyrazin-6-amine], the IC50 is no more than 0.01 µM on CDK2/Cyclin E and 0.1 to 0.5 µM on CDK1/Cyclin B1, GST-tag.

As for `FC[C@@H](c1ccccn1)n1ncc2ncc(Nc3cc(OC(F)F)[nH]n3)nc21` (single isomer, unassigned) [Example 15, (R)—N-(5-(difluoromethoxy)-1H-pyrazol-3-yl)-1-(2-fluoro-1-(pyridin-2-yl)ethyl)-1H-pyrazolo[3,4-b]pyrazin-6-amine or (S)—N-(5-(difluoromethoxy)-1H-pyrazol-3-yl)-1-(2-fluoro-1-(pyridin-2-yl)ethyl)-1H-pyrazolo[3,4-b]pyrazin-6-amine], the IC50 is 0.03 to 0.1 µM at CDK2/Cyclin E and no less than 0.5 µM on CDK1/Cyclin B1, GST-tag.

As to `FC(F)Oc1cc(Nc2cnc3cnn(C[C@H]4CCOC4)c3n2)n[nH]1` (single isomer, unassigned) [Example 144, (S)-N-(5-(difluoromethoxy)-1H-pyrazol-3-yl)-1-((tetrahydrofuran-3-yl)methyl)-1H-pyrazolo[3,4-b]pyrazin-6-amine or (R)-N-(5-(difluoromethoxy)-1H-pyrazol-3-yl)-1-((tetrahydrofuran-3-yl)methyl)-1H-pyrazolo[3,4-b]pyrazin-6-amine], the IC50 at CDK2/Cyclin E was no more than 0.01 µM; at CDK1/Cyclin B1, GST-tag it was less than 0.1 µM.

As for `COc1cc(Nc2cnc3cnn(C[C@H]4CCOC4)c3n2)n[nH]1` [Example 70, (R)-N-(5-methoxy-1H-pyrazol-3-yl)-1-((tetrahydrofuran-3-yl)methyl)-1H-pyrazolo[3,4-b]pyrazin-6-amine], the IC50 on CDK2/Cyclin E is no more than 0.01 µM; at CDK1/Cyclin B1, GST-tag it was 0.1 to 0.5 µM.

For `FC(F)Oc1cc(Nc2cnc3cnn(C[C@H]4CCCNC4)c3n2)n[nH]1` [Example 200, (S)—N-(5-(difluoromethoxy)-1H-pyrazol-3-yl)-1-(piperidin-3-ylmethyl)-1H-pyrazolo[3,4-b]pyrazin-6-amine], the IC50 on CDK2/Cyclin E was 0.02 to 0.03 µM; on CDK1/Cyclin B1, GST-tag it was no less than 0.5 µM.
